Compound in experiment [1]: COc1ccc(-c2cc3c(C)nc(N)nc3n([C@H]3CC[C@H](OCCO)CC3)c2=O)cn1
Nature of the experiment: surviving fraction relative to DMSO-only wells; higher = less growth inhibition. Conditions: exposure time: 5 days. The method in brief:
(§1)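 Surviving fraction is CellTiter-Glo luminescence divided by the median of wells given DMSO only. For this, log-phase tumour cell lines went into 384-well plates at 250–500 cells per well and, 24 hours later, into five days of continuous inhibitor exposure at 0.5, 1, 5, 10, 50, 100, 500 and 1000 nM. Lines were screened three times and retained only if replicate Pearson r >0.7 and median Z' >0.3.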

Compound in experiment [2]: C[C@H](CN(C)C)Oc1nc(Nc2cc3cccc(Cl)c3cn2)cnc1C#N
The experiment is described as above. Conditions: exposure time: 5 days. The method in brief:
as §1

± gives the standard deviation of the averaged measurements.

Turning to HMT3552 BREAST, the surviving fraction worked out at 0.941 in experiment [1] (0.5 nM); 0.913 in experiment [1] (1 nM); 0.883 in experiment [1] (5 nM); 0.813 in experiment [1] (10 nM); 0.535 in experiment [1] (50 nM); 0.279 in experiment [1] (100 nM). Moreover, the surviving fraction was determined as 0.09 in experiment [1] (500 nM); 0.077 in experiment [1] (1000 nM); 0.984 ± 0.029 in experiment [2] (0.5 nM); 1.04 ± 0.043 in experiment [2] (1 nM); 1.08 ± 0.093 in experiment [2] (5 nM); 1.04 ± 0.036 in experiment [2] (10 nM). Also, the surviving fraction in experiment [2] (50 nM) was determined as 1.22 ± 0.018; in experiment [2] (100 nM) it was 1.19 ± 0.064; in experiment [2] (500 nM) it was 0.121 ± 0.016; in experiment [2] (1000 nM) it was 0.103 ± 0.01.
With HS578T BREAST, the surviving fraction in experiment [1] (0.5 nM) came to 0.864 ± 0.19; in experiment [1] (1 nM), 0.946 ± 0.1; in experiment [1] (5 nM), 0.811 ± 0.047; in experiment [1] (10 nM), 0.759 ± 0.12; in experiment [1] (50 nM), 0.547 ± 0.048; in experiment [1] (100 nM), 0.403 ± 0.028. Further, the surviving fraction in experiment [1] (500 nM) was 0.17 ± 0.008; in experiment [1] (1000 nM), 0.111 ± 0.004; in experiment [2] (0.5 nM), 0.988 ± 0.17; in experiment [2] (1 nM) it was 1.02 ± 0.11; in experiment [2] (5 nM), 0.972 ± 0.14; in experiment [2] (10 nM) it was 1.04 ± 0.11. The surviving fraction worked out at 1.05 ± 0.041 in experiment [2] (50 nM), 0.796 ± 0.14 in experiment [2] (100 nM), 0.216 ± 0.028 in experiment [2] (500 nM) and 0.191 ± 0.02 in experiment [2] (1000 nM).
In the case of G292 BONE, the surviving fraction in experiment [1] (0.5 nM) came to 0.951 ± 0.026; in experiment [1] (1 nM) it was 0.971 ± 0.037; in experiment [1] (5 nM) it was 0.853 ± 0.042; in experiment [1] (10 nM), 0.78 ± 0.011; in experiment [1] (50 nM) it was 0.422 ± 0.027; in experiment [1] (100 nM), 0.305 ± 0.013. Also, the surviving fraction in experiment [1] (500 nM) stood at 0.124 ± 0.003; in experiment [1] (1000 nM), 0.0955 ± 0.001; in experiment [2] (0.5 nM), 1.06 ± 0.053; in experiment [2] (1 nM) it was 1.02 ± 0.012; in experiment [2] (5 nM) it was 1.05 ± 0.021; in experiment [2] (10 nM), 1.05 ± 0.075. Also, the surviving fraction in experiment [2] (50 nM) was determined as 1.107 ± 0.0061; in experiment [2] (100 nM) it was 1.08 ± 0.061; in experiment [2] (500 nM) it was 0.648 ± 0.046; in experiment [2] (1000 nM), 0.43 ± 0.028.
HCC38 BREAST: the surviving fraction came to 0.974 ± 0.14 in experiment [1] (0.5 nM); 1.13 ± 0.17 in experiment [1] (1 nM); 1.21 ± 0.02 in experiment [1] (5 nM); 1.08 ± 0.069 in experiment [1] (10 nM); 1.14 ± 0.14 in experiment [1] (50 nM); 1.01 ± 0.34 in experiment [1] (100 nM). For the same test system, the surviving fraction in experiment [1] (500 nM) is 0.409 ± 0.083; in experiment [1] (1000 nM), 0.223 ± 0.046; in experiment [2] (0.5 nM) it was 1.25 ± 0.22; in experiment [2] (1 nM) it was 1.32 ± 0.18; in experiment [2] (5 nM) it was 1.36 ± 0.28; in experiment [2] (10 nM), 1.3 ± 0.14. Besides, the surviving fraction in experiment [2] (50 nM) turned out to be 0.989 ± 0.06; in experiment [2] (100 nM), 0.821 ± 0.23; in experiment [2] (500 nM), 0.125 ± 0.028; in experiment [2] (1000 nM) it was 0.0697 ± 0.013.
As to HMLE3 BREAST, the surviving fraction in experiment [1] (0.5 nM) worked out at 0.914 ± 0.04; in experiment [1] (1 nM), 0.918 ± 0.061; in experiment [1] (5 nM), 0.858 ± 0.12; in experiment [1] (10 nM), 0.83 ± 0.035; in experiment [1] (50 nM), 0.611 ± 0.043; in experiment [1] (100 nM) it was 0.446 ± 0.024. The surviving fraction in experiment [1] (500 nM) is 0.121 ± 0.01; in experiment [1] (1000 nM), 0.0777 ± 0.0064; in experiment [2] (0.5 nM) it was 1 ± 0.081; in experiment [2] (1 nM), 0.949 ± 0.035; in experiment [2] (5 nM), 1.01 ± 0.04; in experiment [2] (10 nM), 0.998 ± 0.056. The surviving fraction was 1.07 ± 0.069 in experiment [2] (50 nM), 1.07 ± 0.1 in experiment [2] (100 nM), 0.93 ± 0.076 in experiment [2] (500 nM) and 0.735 ± 0.025 in experiment [2] (1000 nM).
For CCK81 LARGE INTESTINE, the surviving fraction came out at 0.681 ± 0.1 in experiment [2] (0.5 nM); 0.819 ± 0.097 in experiment [2] (1 nM); 0.726 ± 0.09 in experiment [2] (5 nM); 0.739 ± 0.029 in experiment [2] (10 nM); 0.774 ± 0.15 in experiment [2] (50 nM); 0.52 ± 0.084 in experiment [2] (100 nM). The surviving fraction stood at 0.349 ± 0.069 in experiment [2] (500 nM) and 0.374 ± 0.049 in experiment [2] (1000 nM).
Consider HCC70 BREAST, for which the surviving fraction in experiment [1] (0.5 nM) worked out at 1.01 ± 0.091; in experiment [1] (1 nM), 1.02 ± 0.092; in experiment [1] (5 nM), 1.06 ± 0.097; in experiment [1] (10 nM) it was 0.98 ± 0.026; in experiment [1] (50 nM) it was 0.623 ± 0.051; in experiment [1] (100 nM) it was 0.346 ± 0.011. The surviving fraction in experiment [1] (500 nM) was found to be 0.111 ± 0.036; in experiment [1] (1000 nM) it was 0.056 ± 0.0061; in experiment [2] (0.5 nM), 1.07 ± 0.06; in experiment [2] (1 nM) it was 1.11 ± 0.14; in experiment [2] (5 nM), 1.01 ± 0.038; in experiment [2] (10 nM) it was 1.09 ± 0.034. Further, the surviving fraction was 1.1 ± 0.045 in experiment [2] (50 nM), 1.14 ± 0.025 in experiment [2] (100 nM), 0.639 ± 0.086 in experiment [2] (500 nM) and 0.191 ± 0.021 in experiment [2] (1000 nM).

For the origin of these results see the supplement of paper PMC6045584.
